# Results: US20050267166A1, “Continuous dosing regimen” (priority 2004, published 2005)
# Legend:
# H-111 gastric cancer = assay: human tumor xenograft in nude mice, H-111; type: in vivo; details: Q1D × 19, 80 mg/kg/day
# H-31 breast cancer = assay: human tumor xenograft in nude mice, H-31; type: in vivo; details: Q1D × 19, 80 mg/kg/day
# [1] = test system: intestinal tumors of Apc^Min (Min) mice; assay: Apc Min mice spontaneous intestinal tumorigenesis model; type: in vivo; details: orally once-a-day for 28 days at 150 mg/kg/day; vehicle controls 73.3
# From the text: Apc^Min (Min) mice are models for genetically inherited intestinal cancer. These mice carry a dominant germline mutation in the Apc tumor suppressor gene that predisposes them to the development of numerous (>50) tumors throughout the intestinal tract.
# The average tumor number for treated mice was 49.8 compared to 73.3 for vehicle controls. Drug treatment was initiated at an age when the tumors were well-established.
# [2] = MTD and safety in the 7-day and 21-day QD regimens in patients; type: in vivo
# Procedure: In the 7-day QD regimen, the 250 mg QD dose has been determined to be the MTD, as dose limiting toxicities of peripheral neuropathy/ileus were reported in 2 of 6 subjects at the 300 mg QD dose.
# The tumor types studied were colorectal (23), sarcoma (5), mesothelioma (3), salivary gland (2), endometrial (2), unknown (2), hepatoma (1), melanoma (1), renal cell (1), lung (1), ovary (1), and granulosa cell (1). […] Doses were escalated by 50 mg/day (25 mg twice per day). Three patients were initially treated at each dose level. […] If additional patients experienced dose-limiting toxicity, on occasion the dose level was expanded to nine patients to further assess tolerability. Response assessment was performed every two cycles.
# [3] = test system: MDA-MB-468 breast carcinoma; assay: MDA-MB-468 breast flank xenograft model (staged); type: in vivo, human
# Procedure: (§1) Following inoculation of tumor cells, tumors were passaged three times in mice before using the fragments to generate single cell suspensions. Multiple animals were used as donors. Single cell suspensions were generated by homogenizing the minced tumor tissue in RPMI 1640 media. Cell suspensions were washed three times to remove debris and other foreign materials. Viable cells were counted by trypan blue exclusion technique using a hemocytometer. Mice were injected subcutaneously with 0.5 mL of the cell suspension containing 1×10^6 cells.
# For determination of the efficacy of N-(2-((4-hydroxyphenyl)amino)pyrid-3-yl)-4-methoxybenzenesulfonamide in the MDA-MB-468 Breast Flank Xenograft model, tumor cells derived from serially passaged tumor fragments were inoculated subcutaneously in female nude mice on day 0. On day 10, mice bearing established tumors were size matched and grouped at about 231 mm^3.
# H-143 colorectal cancer = assay: human tumor xenograft in nude mice, H-143; type: in vivo; details: Q5D × 5, 300 mg/kg/day
# MiaPaCa-2 pancreatic = assay: MiaPaCa-2 orthotopic tumor model; type: in vivo, human; details: for % T/C: orthotopic, d 1-5, 11-15
# From the text: (2-((4-hydroxyphenyl)amino)pyrid-3-yl)-4-methoxybenzenesulfonamide inhibited the growth of a variety of human tumor xenografts that were allowed to grow into established tumors prior to the initiation of treatment. As summarized below, activity was seen against established tumors derived from colon, breast and lung carcinomas. (2-((4-hydroxyphenyl)amino)pyrid-3-yl)-4-methoxybenzenesulfonamide was also active against a human pancreatic tumor xenograft grown in the orthotopic site.
# in vivo = details: mouse, po
# [4] = test system: HCT-15 human colon carcinoma; assay: HCT-15 human colon carcinoma xenografts; type: in vivo
# From the text: HCT-15 is a human colon carcinoma derived cell line. It is MDR positive, and expresses both mutant p53 and oncogenic K-ras. The HCT-15 cell line has one of the highest levels of mdr-1/P-glycoprotein expression of cells from the NCI tumor cell line panel.
# Effect of Cytotoxic Agents on the Growth of HCT-15 Human Colon Carcinoma Xenografts
# WiDr colorectal cancer = assay: human tumor xenograft in nude mice, WiDr; type: in vivo; details: Q1D × 20, 100 mg/kg/day
# LC-6 lung cancer = assay: human tumor xenograft in nude mice, LC-6; type: in vivo; details: Q5D × 5, 450 mg/kg/day
# [5] = test system: M5076 transplantable murine reticulum cell sarcoma
# SC-6 gastric cancer = assay: human tumor xenograft in nude mice, SC-6; type: in vivo; details: Q5D × 5, 500 mg/kg/day
# [6] = test system: COLO320DM colorectal cancer; assay: human tumor xenograft in nude mice, COLO320DM; type: in vivo; details: Q1D × 19, 120 mg/kg/day
# [7] = tolerability of continuous 21 day once per day dosing in xenograft mice; type: in vivo, nude mice; details: 50 mg/kg/day
# KB oral cancer = assay: human tumor xenograft in nude mice, KB; type: in vivo; details: Q1D × 20, 100 mg/kg/day
# H-81 gastric cancer = assay: human tumor xenograft in nude mice, H-81; type: in vivo; details: Q5D × 5, 300 mg/kg/day
# MX-1 breast cancer = assay: human tumor xenograft in nude mice, MX-1; type: in vivo; details: Q5D × 5, 450 mg/kg/day
# HT-29 colon carcinoma = assay: HT-29 colon flank xenograft model (staged); type: in vivo, human
# Procedure: as §1
# On day 10, mice bearing established tumors were size matched and grouped at about 236 mm^3.
# [8] = test system: NCI-H460 human non-small cell lung carcinoma; assay: NCI-H460 xenograft model; type: in vivo
# From the text: NCI-H460 is a human non-small cell lung carcinoma derived cell line. It is MDR negative, has wild type p53, and contains an oncogenic K-ras mutation.
# [9] = 150 mg/kg orally once a day for 5 days
# [10] = oral 75 mg/kg/d QD, d 10-14, 20-24
structure (smiles),measurement,setting,value
"COc1ccc(S(=O)(=O)Nc2cccnc2Nc2ccc(O)cc2)cc1 [ABT-751, N-(2-((4-hydroxyphenyl)amino)pyrid-3-yl)-4-methoxybenzenesulfonamide]",T/C (%),H-111 gastric cancer,36%
same,T/C (%),H-31 breast cancer,13%
same,average tumor number,[1],49.8
same,MTD,[2]; 7-day QD regimen,250 mg
same,MTD,[2]; QD regimen given for 21 days,200 mg
same,"dose limiting toxicities of fatigue, anorexia and suspect small bowel obstruction, subjects affected","[2]; human, in vivo",⅔
same,"myelosuppression, renal or hepatic toxicity","[2]; human, in vivo",no significant
same,"dose limiting toxicities of peripheral neuropathy/ileus, subjects affected","[2]; human, in vivo, 7 days",2 of 6
same,antitumor activity as single agent,"[3]; 100 and 75 mg/kg/day (5 days on/5 days off)×2, 50 mg/kg/day daily",dose-dependent antitumor activity
same,response in combination with docetaxel,[3]; in combination with docetaxel at 33.3 mg/kg/day,greater than additive responses
same,T/C (%),H-143 colorectal cancer,17%
same,antitumor activity in combination with gemcitabine compared to single agent alone,"MiaPaCa-2 pancreatic; in combination with gemcitabine, MiaPaCa2 pancreatic xenograft",increase in antitumor activity
same,% T/C,MiaPaCa-2 pancreatic; oral 75 mg/kg/d QD,79%
same,% T/C,MiaPaCa-2 pancreatic; oral 100 mg/kg/d QD,56%
same,MTD,in vivo,~150 mg/kg
same,% ILS,"[4]; 50 mg/kg/d PO, QD, days 1-8",34%
same,T/C,"[4]; 50 mg/kg/d PO, QD, days 1-8, 2 trials",50 (2)
same,efficacy in HCT-15 xenografts,[4]; in words,effective in inhibiting tumor growth
same,T/C (%),WiDr colorectal cancer,22%
same,T/C (%),LC-6 lung cancer,31%
same,ILS (percent increase in life span),[5]; [9],42%
same,T/C (tumor mass of test group divided by tumor mass of control group),[5]; [9],13%
same,antitumor activity in the M5076 model,[5]; in words,significant antitumor activity
same,T/C (%),SC-6 gastric cancer,22%
same,T/C (%),[6],42%
same,adverse side effects,[7],essentially without adverse side effects
same,T/C (%),KB oral cancer,15%
same,T/C (%),H-81 gastric cancer,40%
same,T/C (%),MX-1 breast cancer,21%
same,antitumor activity as single agent,"HT-29 colon carcinoma; 100 and 75 mg/kg/day, (5 days on/5 days off)×2",significant antitumor activity
same,response in combination with 5-fluorouracil,"HT-29 colon carcinoma; in combination with 5-fluorouracil at 30 mg/kg/day, higher doses",additive responses
same,% T/C,"HT-29 colon carcinoma; oral 50 mg/kg/d QD, d 1-21",55%
same,% ILS,HT-29 colon carcinoma; [10],50%
same,% T/C,HT-29 colon carcinoma; [10],43%
same,% T/C,"HT-29 colon carcinoma; oral 100 mg/kg/d QD, d 10-14, 20-24",28%
same,"T/C, mean tumor volume",[8]; day 13,58%
same,ILS (delay in tumor growth),[8]; in vivo,32%
same,efficacy in the NCI-H460 xenograft model,[8]; in words,good efficacy
